Source: patent publication US7893299B2, “Interleukin-1 and tumor necrosis factor-αmodulators; syntheses of such modulators and methods of using such modulators” (Nereus Pharmaceuticals, Inc., priority 2005, dated 2011)
Read-outs that look alike come from different tables or passages of the source.

Columns and labels:
Panc1 and HS766T = experiment: TRAIL resistance of human pancreatic cancer cell lines; type: cell-based
Text: (§1) Novel diterpene inhibitors of NFκB derived from acanthoic acid (NPI-1342 (Formula IIB-a1) and NPI-1387; compound 24 under scheme 4 above) show measurable effects in human pancreatic cancer cell lines in vitro. Seven of the nine cell lines were moderately sensitive to apoptosis induced by death receptor ligand Tumor Necrosis Factor (TNF) related apoptosis-inducing ligand (TRAIL). […] Specific silencing of NFkB/p65 expression mimicked these effects. Furthermore, combination treatment of Salinosporamide A and either NPI-1342 or NPI-1387 led to induction of apoptosis as measured by PI FACS analysis. Specifically, levels of DNA fragmentation increased from 4% to 50% in HS766T cells and from 4% to 52% in Panc1 cells. The inhibitory effects of NPI-1342, NPI-1387 on NFκB were evaluated by Electromobility Shift Assays and confirmed by confocal microscopy.

MDA-MB-231 (Breast) = experiment: 48 hr cytotoxicity, MDA-MB-231; type: cell-based, human
Experimental: (§2) B16-F10 (ATCC; CRL-6475), DU 145 (ATCC; HTB-81), HEK293 (ATCC; CRL-1573), HT-29 (ATCC; HTB-38), LoVo (ATCC; CCL-229), MDA-MB-231 (ATCC; HTB-26), MIA PaCa-2 (ATCC; CRL-1420), NCI-H292 (ATCC; CRL-1848), OVCAR-3 (ATCC, HTB-161), PANC-1 (ATCC; CRL-1469), PC-3 (ATCC; CRL-1435), RPMI 8226 (ATCC; CCL-155) and U266 (ATCC; TIB-196) are maintained in appropriate culture media. The cells are cultured in an incubator at 37° C. in 5% CO2 and 95% humidified air.
(§3) For cell growth inhibition assays, B16-F10, DU 145, HEK293, HT-29, LoVo, MDA-MB-231, MIA PaCa-2, NCI-H292, OVCAR-3, PANC-1, PC-3, RPMI 8226 and U266 cells are seeded at 1.25×10^3, 5×10^3, 1.5×10^4, 5×10^3, 5×10^3, 1×10^4, 2×10^3, 4×10^3, 1×10^4, 7.5×10^3, 5×10^3, 2×10^4, 2.5×10^4 cells/well respectively in 90 μl complete media into Corning 3904 black-walled, clear-bottom tissue culture plates. 20 mM stock solutions of compounds of Formula II, IIA, and IIB are prepared in 100% DMSO, aliquoted and stored at −80° C. Compounds of Formula II, IIA, and IIB are serially diluted and added in triplicate to the test wells resulting in final concentrations ranging from of 20 μM to 0.2 pM. […]
(§4) Following 48 hours of drug exposure, 10 μl of 0.2 mg/ml resazurin (obtained from Sigma-Aldrich Chemical Co.) in Mg^2+, Ca^2+ free phosphate buffered saline is added to each well and the plates are returned to the incubator for 3-6 hours. Since living cells metabolize Resazurin, the fluorescence of the reduction product of Resazurin is measured using a Fusion microplate fluorometer (Packard Bioscience) with λex=535 nm and λem=590 nm filters. […]
(§5) The cytotoxicity assays were performed by seeding individual cell lines at appropriate density in the 96 well flat-bottomed plates and allowed to attach for 24 hours at 37° C., 5% CO2 and 95% humidified air (RPMI 8226 and U266 cells were plated in 96 well plates on the day of compound addition). […] Cell viability was assessed 48 hours later by measuring the fluorescence of the reduction product of Resazurin by a Fusion microplate fluorometer (PerkinElmer) with λex=535 nm and λem=590 nm filters. […]

[1] = tested on: MM cells with IL-6 or IGF-1; experiment: protective effects of MM bone marrow microenvironment; type: cell-based
[2] = tested on: peripheral blood mononuclear cells; experiment: viability of peripheral blood mononuclear cells from normal healthy donors; type: cell-based
Text: Besides nuclear condensation, NF-KB inhibitor triggered proteolytic cleavage of poly (ADP ribose) polymerase (PARP), a hallmark of apoptosis.

[3] = tested on: TNF-α induced nuclear factor-κB (NF-κB) activation; experiment: HEK293 NF-κB/Luciferase reporter cell line; type: cell-based
U266 (MM) = experiment: 48 hr cytotoxicity, U266; type: cell-based, human
Experimental: as §2, §3, §4, §5

HS766T cells = experiment: apoptosis by PI FACS analysis, HS766T; type: cell-based, human; conditions: combination treatment with Salinosporamide A, increased from 4%
Text: as §1

MM cells = experiment: MM cell death after 48 hours on co-administration with other drugs; type: cell-based
Experimental: In Vitro assays measuring the percentage of MM cell death after 48 hours were carried out with bortezomib and dexamethasone, each in concert with NPI-1387. […] (See FIGS. 70 and 71).

[4] = tested on: CCD-27sk (human normal skin fibroblast); experiment: 48 hr cytotoxicity, CCD-27sk; type: cell-based; conditions: 48 hr drug exposure
Experimental: Human colon adenocarcinoma HT-29 (ATCC# HTB-38), prostate adenocarcinoma PC-3 (ATCC# CRL-1435), breast adenocarcinoma MDA-MB231 (ATCC# HTB-26), Multiple Myeloma RPMI 8226 (ATCC# CCL-155) and U266 (ATCC # TIB-196) cell lines and human normal fibroblast CCD-27sk (ATCC# CRL-1475) were all purchased from ATCC (Manassas, Va.). The cells were maintained in their respective ATCC recommended culture media at 37° C., 5% CO2 and 95% humidified air.
The cytotoxicity assays were performed by seeding individual cell lines at appropriate density in the 96 well flat-bottomed plates and allowed to attach for 24 hours at 37° C., 5% CO2 and 95% humidified air (RPMI 8226 and U266 cells were plated in 96 well plates on the day of compound addition). Serially diluted NPI-1387 was added in triplicate to cells at concentrations ranging from 160 nM to 20 μM. Final concentration of 0.25% (v/v) DMSO was used as the vehicle control. Cell viability was assessed 48 hours later by measuring the fluorescence of the reduction product of Resazurin by a Fusion microplate fluorometer (PerkinElmer) with λex=535 nm and λem=590 nm filters. The IC50 values (the drug concentration at which 50% of the maximal observed cytotoxicity is established) were calculated in XLFit 3.0 or XLFit 4.0 (ID Business Solutions Ltd) using a sigmoidal dose response model.

Question: With `C=CC(=O)C1(C)CCCC2(C)C3=CCC(C)(C=C)C[C@@H]3CC[C@H]12` (stereo in doubt) [NPI-1387, 1-[(1S,4aS,7R)-1,4a,7-Trimethyl-7-vinyl-1,2,3,4,4a,6,7,8,8a,9,10,10a-dodecahydro-1-phenanthrenyl]-2-propen-1-one] as the compound, how does the TRAIL resistance (Panc1 and HS766T) read?
Answer: reversed TRAIL resistance

Question: And the IC50 (MDA-MB-231 (Breast))?
Answer: 15 ± 4 µM

Question: What about the IC50 (MDA-MB-231 (Breast); Homo sapiens, MDA-MB-231, 48 h) of the same compound?
Answer: 18 ± 2 µM

Question: What about the “protective effects of IL-6 or IGF-1” value [1] of the same compound?
Answer: does overcome the protective effects of IL-6 or IGF-1

Question: What about the “toxicity against / change in viable peripheral blood mononuclear cells” value [2] of the same compound?
Answer: relatively minimal

Question: What about the “toxicity against / change in viable peripheral blood mononuclear cells” value ([2]; listed as NF-KB inhibitor) of the same compound?
Answer: no significant toxicity

Question: What about the “TNF-α induced NF-κB activation” value [3] of the same compound?
Answer: reduced TNF-α induced nuclear factor-κB (NF-κB) activation

Question: And the IC50 (U266 (MM))?
Answer: 7 ± 1.9 µM

Question: What about the IC50 (U266 (MM); Homo sapiens, U-266, 48 h) of the same compound?
Answer: 8.7 ± 6.4 µM

Question: And the “levels of DNA fragmentation” value (HS766T cells)?
Answer: 50%

Question: And the “percentage of MM cell death, co-administration with bortezomib” value (MM cells)?
Answer: additive effects in increasing the percentage of MM cell death

Question: And the “percentage of MM cell death, co-administration with dexamethasone” value (MM cells)?
Answer: additive effects in increasing the percentage of MM cell death

Question: And the IC50 [4]?
Answer: ≥ 20 µM
